{
  "source": "paper PMC3938723",
  "about": "“Learning from Host-Defense Peptides: Cationic, Amphipathic Peptoids with Potent Anticancer Activity” (PLoS ONE, 2014)",
  "key": {"OVCAR3 (ovarian cancer)": {"system": "OVCAR3 (ovarian cancer)", "test": "MTS cell viability assay, OVCAR3", "type": "cell-based", "settings": "72 h", "procedure": "(§1) MCF-7, MCF-7/TxT50 and OVCAR-3 (available in ATCC) were kindly provided by Professor Branimir Sikic's lab at Stanford University, and were cultured in McCoy's 5A media (GIBCO) with 10% FBS and antibiotics. Primary dermal fibroblasts were gifts from Lifeline Cell Technology and were cultured <6 passages according to the protocol Lifeline provides. All the cells were cultured in cell incubators (Thermo Scientific) at 37°C with 5% CO2.\n(§2) This assay is a colorimetric method for determining the number of viable cells in proliferation. Aliquots of 100 µl media containing 1×10^4 cells were distributed into each well of a 96-well plate (BD Falcon). The following day, when cell density reaches about ∼40% confluency, the cell media were removed and replaced with serial dilutions of peptoid stocks in culturing media. For peptoid dilutions, peptoid stocks were initially diluted in media at 100 µM and then diluted by half in series using a multichannel pipette, and maintained in 100 µl media for each concentration with triple repeats. After peptoid solutions were transferred onto cells in 96-well plates, cells were incubated at 37°C for certain time periods. Then 20 µl of the CellTiter 96 Aqueous Non-Radioactive cell proliferation assay (Promega) reagent which contains a tetrazolium compound, [3-(4,5-dimethylthiazol-2-yl)-5-(3-carboxymethoxyphenyl)-2-(4-sulfophenyl)-2H-tetrazolium, inner salt; MTS(a)], was added to each well and cells were further incubated for 2 h to metabolize. The absorbance of formazan products were measured at 490 nm in a microplate reader (Molecular Devices). Percentage of cell viability = (A -A testblank)/(A control -A blank)×100, where A is the absorbance of the test well and A control the average absorbance of wells with cells not treated with peptoids. A testblank (media, MTS, and diluted peptoids) and A blank (media and MTS) were background absorbances measured in the absence of cells.\n(§3) The activity and selectivity of these peptoids against cancer cells were evaluated in vitro. Their cytotoxicity was tested in three cancer cell lines, MCF-7 (human breast cancer), LNCaP (human prostate cancer), and OVCAR-3 (human ovarian cancer). To estimate the selectivity of these peptoids in vitro, hemolytic activities of some peptoids were cited from previously published work (Table 2 **column), and the MRC-5 cell line (human fibroblasts derived from fetal lung tissues) and primary dermal fibroblasts were also tested as normal cell controls. Briefly, cells were treated with peptoids diluted in culturing media for certain time periods, and then cell viability was measured via MTS assays."}, "[1]": {"system": "MRC-5 (fetal lung fibroblast)", "test": "MTS cell viability assay, MRC-5", "type": "cell-based", "settings": "72 h", "procedure": "as §1, §2, §3"}, "[2]": {"system": "human breast cancer xenograft", "test": "Human breast cancer orthotopic xenograft mouse model, tumor growth", "type": "in vivo", "settings": "~1 mg/kg (100 µl of 110 µM in PBS) injected into mammary fat pad three times a week, NSG mice, versus control peptoid 1 11mer-NLeu; caliper; P = 0.0014, t test", "procedure": "80,000 cells from a dissociated second generation metastatic breast cancer tumor were suspended in Medium 199 containing 25% Matrix Matrigel (Becton Dickinson 354248) and injected into the mammary fat pad of 4–8 week old NOD.Cg-Prkdc^scid Il2rg^tm1Wjl/SzJ (NSG) mice. After two weeks, 100 µl PBS containing 110 µM peptoid 1 or control peptide was injected into the mammary fat pad three times a week, roughly at a dose of 1 mg/kg. Tumor volumes were determined using direct caliper measurements following […] of treatment.\nHuman breast cancer cells were implanted in the mammary fat pad of immunocompromised mice.\nFigure 5 Reduction of tumor volumes in a human breast cancer xenograft mouse model treated with peptoid 1. Cancer cells (8×10^4 cells) isolated from the second generation xenografts of human breast cancer tissues were implanted s.c. into the lower left mammary fat pads of 5–6-week-old immunocompromised NSG (NOD.Cg-Prkdc^scid Il2rg^tm1Wjl/SzJ) female mice. Two weeks after cell implantation, 100 µl of peptoid 1 and control peptoids were injected into xenografts at 110 µM in PBS (∼1 mg/kg) three times a week, up to 8 weeks. Tumor sizes were measured by a caliper. P = 0.0014, t test."}},
  "note": "Non-standard residues stand in square brackets, D forms with d. Residues, ends and D or L forms follow the SMILES beside them. Nspe = C[C@H](NCC(=O)O)c1ccccc1; Nlys = NCCCCNCC(=O)O",
  "data": [
    {"smiles": "C[C@@H](c1ccccc1)N(CC(N)=O)C(=O)CN(C(=O)CN(CCCCN)C(=O)CN(C(=O)CN(C(=O)CN(CCCCN)C(=O)CN(C(=O)CN(C(=O)CN(CCCCN)C(=O)CN(C(=O)CN(C(=O)CNCCCCN)[C@@H](C)c1ccccc1)[C@@H](C)c1ccccc1)[C@@H](C)c1ccccc1)[C@@H](C)c1ccccc1)[C@@H](C)c1ccccc1)[C@@H](C)c1ccccc1)[C@@H](C)c1ccccc1", "note": "[Peptoid 1, H-(NLys-Nspe-Nspe)4-NH2] (H-[Nlys][Nspe][Nspe][Nlys][Nspe][Nspe][Nlys][Nspe][Nspe][Nlys][Nspe][Nspe]-NH2)", "values": [
      {"measurement": "LC50 OVCAR3 (ovarian cancer)", "setting": "OVCAR3 (ovarian cancer)", "value": 6, "unit": "µM"},
      {"measurement": "LC50 MRC-5 (fetal lung fibroblast)", "setting": "[1]", "value": 8, "unit": "µM"},
      {"measurement": "tumor growth", "setting": "[2]", "value": "significantly inhibited the tumor growth"}
    ]}
  ]
}
